Calls of active or inactive are those of the source.
Key:
[1] = NIH-3T3 fibroblast cytotoxicity, dose response, cytotoxicity control, cell-based, fluorescence, Alamar Blue, secondary assay (AID 2327); type: functional;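 also: NIH-3T3 mouse fibroblasts cultured with fluconazole at 8 µg/mL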
[2] = C. albicans growth with fluconazole, confirmation, fluorescence, retest (AID 2467); type: functional, cell-based
[3] = molecular target: T1, Protein skinhead-1 (Caenorhabditis elegans, UniProt P34707); type: functional
T1 sequence (P34707 whole entry): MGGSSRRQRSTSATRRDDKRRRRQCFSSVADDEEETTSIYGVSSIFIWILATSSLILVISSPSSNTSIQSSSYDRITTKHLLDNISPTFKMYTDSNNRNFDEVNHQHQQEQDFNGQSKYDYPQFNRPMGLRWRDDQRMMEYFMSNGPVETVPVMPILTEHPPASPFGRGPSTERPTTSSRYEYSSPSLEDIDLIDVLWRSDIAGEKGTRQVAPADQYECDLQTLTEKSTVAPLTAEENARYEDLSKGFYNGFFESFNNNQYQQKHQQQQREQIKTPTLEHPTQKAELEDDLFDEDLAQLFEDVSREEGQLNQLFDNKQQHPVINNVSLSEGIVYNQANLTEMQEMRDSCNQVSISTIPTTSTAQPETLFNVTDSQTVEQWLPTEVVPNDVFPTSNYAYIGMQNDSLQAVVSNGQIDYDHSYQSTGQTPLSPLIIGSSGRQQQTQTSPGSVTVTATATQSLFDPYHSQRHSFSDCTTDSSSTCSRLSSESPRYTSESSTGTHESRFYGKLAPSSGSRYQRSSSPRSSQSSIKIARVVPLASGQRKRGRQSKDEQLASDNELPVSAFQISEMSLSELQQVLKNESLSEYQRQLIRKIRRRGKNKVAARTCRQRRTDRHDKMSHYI

[4] = growth suppression of PTEN-null colon cells, dose response, cell-based, HCT116 PTEN knockout (AID 1047); type: functional;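 also: HCT116 colon tumor cells with PTEN knocked out; cells exposed to compound for 60 hours before readout; potency for loss of cell viability measured by luminescence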
[5] = growth suppression of beta-catenin-knockout colon cells, dose response, cell-based, HCT116, human colon tumor (AID 1045); type: functional;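 also: HCT116 colon tumor cells with beta catenin knocked out; cells exposed to compound for 60 hours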
[6] = molecular target: T2, Short transient receptor potential channel 4 (Mus musculus, UniProt Q9QUQ5); test: mouse TRPC4 channel inhibitors, dose response, cell-based, HEK293 TRPC4/mu-opioid, Fluo-4 calcium (AID 434942); type: functional;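 also: potency of inhibitors blocking the TRPC4 calcium response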
T2 sequence (Q9QUQ5 whole entry): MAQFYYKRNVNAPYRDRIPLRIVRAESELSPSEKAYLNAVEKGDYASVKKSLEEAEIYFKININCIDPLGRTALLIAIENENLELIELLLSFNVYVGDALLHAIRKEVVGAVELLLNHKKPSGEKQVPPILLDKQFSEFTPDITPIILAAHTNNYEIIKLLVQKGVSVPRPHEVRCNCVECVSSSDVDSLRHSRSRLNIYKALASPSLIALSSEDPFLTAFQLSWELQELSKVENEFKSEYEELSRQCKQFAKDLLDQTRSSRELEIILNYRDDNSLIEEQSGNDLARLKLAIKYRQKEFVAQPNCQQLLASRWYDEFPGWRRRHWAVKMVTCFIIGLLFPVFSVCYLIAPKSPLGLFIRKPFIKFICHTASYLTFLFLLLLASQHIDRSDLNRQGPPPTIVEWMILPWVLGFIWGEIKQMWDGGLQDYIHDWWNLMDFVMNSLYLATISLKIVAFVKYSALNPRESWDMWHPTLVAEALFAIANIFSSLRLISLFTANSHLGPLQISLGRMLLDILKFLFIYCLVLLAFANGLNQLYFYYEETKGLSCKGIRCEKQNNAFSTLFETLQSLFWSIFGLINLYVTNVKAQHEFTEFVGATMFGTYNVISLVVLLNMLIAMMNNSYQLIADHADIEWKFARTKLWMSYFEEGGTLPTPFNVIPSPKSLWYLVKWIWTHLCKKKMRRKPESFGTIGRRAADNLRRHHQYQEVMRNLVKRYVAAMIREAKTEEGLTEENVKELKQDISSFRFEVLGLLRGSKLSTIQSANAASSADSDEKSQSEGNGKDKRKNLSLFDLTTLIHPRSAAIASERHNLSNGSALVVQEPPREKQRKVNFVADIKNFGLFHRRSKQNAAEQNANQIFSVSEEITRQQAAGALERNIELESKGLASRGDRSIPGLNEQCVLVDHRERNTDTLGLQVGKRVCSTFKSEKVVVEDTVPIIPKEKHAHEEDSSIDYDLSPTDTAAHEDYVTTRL

[7] = molecular target: T3, Heat shock factor protein 1 (Mus musculus, UniProt P38532); test: HSF1 potentiators in luciferase reporter cells, confirmation, cell-based, NIH3T3, luminescence, dose retest (AID 435004); type: functional;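 also: stress induced by proteasome inhibitor MG132 added 30 min after compound; luciferase reporter driven by HSF1 response element in NIH3T3 cells; actives raise luminescence as potentiators of the MG132 stress response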
T3 sequence (P38532 whole entry): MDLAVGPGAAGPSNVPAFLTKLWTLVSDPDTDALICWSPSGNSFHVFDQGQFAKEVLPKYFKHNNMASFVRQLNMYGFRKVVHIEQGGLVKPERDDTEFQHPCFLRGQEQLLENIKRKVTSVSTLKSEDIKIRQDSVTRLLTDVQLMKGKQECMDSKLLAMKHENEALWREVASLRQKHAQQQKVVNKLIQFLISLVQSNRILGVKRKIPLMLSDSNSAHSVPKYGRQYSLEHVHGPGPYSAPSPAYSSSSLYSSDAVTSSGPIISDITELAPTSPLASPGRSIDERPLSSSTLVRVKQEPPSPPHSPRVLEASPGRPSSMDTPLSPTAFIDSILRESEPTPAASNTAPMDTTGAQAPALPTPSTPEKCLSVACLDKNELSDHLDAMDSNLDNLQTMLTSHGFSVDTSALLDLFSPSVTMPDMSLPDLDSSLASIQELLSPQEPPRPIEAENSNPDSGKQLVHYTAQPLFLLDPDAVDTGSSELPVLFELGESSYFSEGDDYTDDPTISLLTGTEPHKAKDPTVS

[8] = system: Streptococcus sp. 'group A'; test: growth inhibition of control SK(-) GAS strain, dose response, counter-screen for streptokinase expression inhibitor project, luminescence, kanamycin, BacTiterGlo, confirmation (AID 1900); type: functional, organism-based
[9] = molecular target: T4, Streptokinase A (Streptococcus pyogenes serotype M1, UniProt P10520); test: S. pyogenes streptokinase expression inhibitors, potency, dose response, plasminogen activation absorbance, OD405 (AID 1914); type: functional, Streptococcus pyogenes M1 GAS;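 also: secreted streptokinase activity via plasminogen activation per viability signal from cell pellet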
T4 sequence (P10520 whole entry): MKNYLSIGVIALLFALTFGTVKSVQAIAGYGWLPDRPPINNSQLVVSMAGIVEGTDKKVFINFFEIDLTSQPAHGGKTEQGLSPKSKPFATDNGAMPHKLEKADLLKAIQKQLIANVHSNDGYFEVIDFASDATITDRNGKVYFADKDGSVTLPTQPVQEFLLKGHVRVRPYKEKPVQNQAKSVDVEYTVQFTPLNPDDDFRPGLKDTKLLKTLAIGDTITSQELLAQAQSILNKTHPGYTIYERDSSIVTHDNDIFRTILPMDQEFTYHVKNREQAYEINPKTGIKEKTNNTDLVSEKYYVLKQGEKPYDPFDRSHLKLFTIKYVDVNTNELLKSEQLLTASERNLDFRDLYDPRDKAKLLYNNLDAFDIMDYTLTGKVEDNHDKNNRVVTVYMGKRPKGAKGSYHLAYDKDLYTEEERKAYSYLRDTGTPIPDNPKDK

[10] = microbe, parasite or virus in culture; type: functional; settings: Mycobacterium tuberculosis
[11] = system: Streptococcus; test: Group A Streptococcus viability loss, dose response, counter-screen for streptokinase expression inhibitor project, luminescence, BacTiterGlo (AID 1915); type: functional, organism-based;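 also: potency for reduction of bacterial viability or growth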
[12] = inhibitors of firefly luciferase expression or activity, dose response, H4 neuroglioma cells, luminescence (AID 1990); type: functional, cell-based
[13] = system: BJ; test: cytotoxicity toward BJ-TERT fibroblasts, dose response, cell-based, RAS-independent, luminescence (AID 1933); type: functional; settings: Homo sapiens
[14] = Luminescence Cell-Based Dose Response HTS to Identify Inhibitors of 5'UTR Stem-Loop Driven Prion Protein mRNA Translation in H4 Neuroglioblastoma Cells. [Related pubchem assays: 1827 (Project Summary), 1813 (Primary HTS)]; type: functional
[15] = inhibitors of SNCA 5'UTR-driven reporter translation, confirmation, H4 neuroglioma cells, luminescence (AID 1988); type: functional, cell-based
[16] = system: BJ; test: cells; type: functional, cell-based; settings: Homo sapiens
[17] = system: BJ; test: cytotoxicity toward BJ-TERT-LT-ST fibroblasts, dose response, cell-based, RAS-independent, luminescence (AID 1935); type: functional; settings: Homo sapiens;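 also: BJ fibroblasts immortalized with TERT plus LT and ST oncogenes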
[18] = cytotoxicity toward DRD oncogenic fibroblasts, dose response, cell-based, non-viral oncogenic, luminescence (AID 1934); type: functional; settings: Homo sapiens
[19] = molecular target: Nonstructural protein 1 (Influenza A virus, UniProt Q194T2); type: functional, Influenza A virus (A/California/07/2009(H1N1))
Nonstructural protein 1, sequence (Q194T2 whole entry): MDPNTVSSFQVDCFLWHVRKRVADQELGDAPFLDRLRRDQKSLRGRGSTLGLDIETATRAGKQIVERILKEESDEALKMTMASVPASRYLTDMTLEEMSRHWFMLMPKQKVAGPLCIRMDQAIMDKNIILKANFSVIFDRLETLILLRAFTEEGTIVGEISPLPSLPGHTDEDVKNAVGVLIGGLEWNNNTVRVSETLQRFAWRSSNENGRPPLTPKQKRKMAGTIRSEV

[20] = system: INS1; test: beta cell apoptosis inhibitors, cytokine rescue, dose response, luminescence, retest (AID 449756); type: functional, cell-based; settings: Rattus norvegicus;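 also: cell death triggered by IL-1 beta plus TNF-alpha plus IFN-gamma mixture; protective hits raise ATP signal compared with cytokine alone wells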

With COc1ccc(C(C(=O)NC2CCCCC2)N(Cc2cccs2)C(=O)Cc2c[nH]c3ccccc23)cc1 (stereo not drawn) the EC50 [1] was > 150 µM (inactive), the EC50 [2] was > 38 µM (not active) and the IC50 [3] was > 100 µM (inactive).
For c1ccc(-c2ccc(-c3nc(-c4cccnc4)no3)cc2)cc1, the IC50 [3] was > 100 µM (inactive).
With N#Cc1cc2c(nc1SCC(=O)Nc1cc(Cl)ccc1Cl)C1CCN2CC1 the EC50 [4] was 6 µM (active) and the EC50 [5] was 3.02 µM (active).
With COc1ccc(C2C(C(C)=O)=C(O)C(=O)N2c2ccc(Br)cc2)cc1 (stereo not drawn) the EC50 [6] was 0.668 µM (active).
For COc1ccc(NS(=O)(=O)c2ccc(N/N=C/c3ccc(N4CCOCC4)cc3)c([N+](=O)[O-])c2)cc1, the EC50 [4] was 6.25 µM (active) and the EC50 [5] was 5.68 µM (active).
With CN(C)CCNC(=O)c1ccc(COc2ccc(Cl)cc2Cl)cc1 the EC50 [4] was 10.7 µM (active) and the EC50 [5] was 9 µM (active).
For O=[N+]([O-])c1cccc(/C=C/c2ccccn2)c1, the IC50 [3] was 39.8 µM (active).
With Fc1ccc(-c2nnc3ccc(N4CCc5ccccc5C4)nn23)cc1 the EC50 [4] was 40.1 µM (active), the EC50 [5] was 54 µM (active) and the EC50 [7] was > 260 µM (inactive).
In the case of C=C(C)Cn1c(SCC)nc2ccccc2c1=O, the EC50 [6] is reported as 4.73 µM (active).
For Cc1cccc(/C=c2\s/c(=C\C(=O)C(C)(C)C)[nH]c2=O)c1, the EC50 [8] was 10 µM (active), the EC50 [9] was > 150 µM (not active) and the CC50 [10] was 24.7 µM (active). For the same compound, the EC50 [11] was 17.2 µM (active).
With Nc1ccc(C=C2C=Cc3ccccc32)cc1 the IC50 [3] was 21.3 µM (active).
In the case of Cc1[nH]n(-c2ccccc2)c(=O)c1N=Nc1c(O)cc(S(=O)(=O)N(C)C)c2ccccc12, the EC50 [12] is reported as 3.37 µM (active), the EC50 [8] is reported as 2.21 µM (active) and the EC50 [13] is reported as 7.94 µM (active). The EC50 [14] was 6.77 µM (active), the EC50 [15] was 2.12 µM (active) and the EC50 [16] was 10.3 µM (active). The EC50 [17] was 10.1 µM (active), the EC50 [18] was 7.77 µM (active) and the EC50 [11] was 6.64 µM (active). For the same compound, the IC50 [19] was 19.8 µM (active) and the AC50 [20] was 0.949 µM (active).
In the case of Brc1cccc(-c2nc3ccc(Br)cn3c2Cc2ccsc2)c1, the IC50 [3] is reported as > 100 µM (inactive).

From ChEMBL document CHEMBL1201862, “PubChem BioAssay data set” (2004)
